Experimental findings from ChEMBL document CHEMBL1287811, “Two new cytotoxic labdane diterpenes from the rhizomes of Hedychium coronarium” (2010) are described below.

Common to all, as to assay type: functional
Assay [1] deals with A549. In words: Growth inhibition of human A549 cells by Sulforhodamine B assay. Particulars: for CC50: read-out: LC50 (the source's name).
The test system of assay [2] is HeLa. In words: Growth inhibition of human HeLa cells by Sulforhodamine B assay.
For assay [3], the system named is SK-N-SH. Kind of assay: Growth inhibition of human SK-N-SH cells by Sulforhodamine B assay.
Assay [4] concerns MCF7. In words: Growth inhibition of human MCF7 cells by Sulforhodamine B assay.

Some results are limits rather than exact numbers.

Regarding `CC1(C)CCC[C@]2(C)[C@@H](/C=C/C3=CCOC3=O)C(C=O)=CC(=O)[C@@H]12`, the GI50 in assay [1] worked out at 18.5 µM; in assay [2], 76.9 µM; in assay [3], 38.7 µM; in assay [4], 69.9 µM. Also, the CC50 in assay [1] amounted to 45.9 µM. The LC50 in assay [2] is over 100 µM; in assay [3], 48.5 µM. In assay [4], the LC50 (concentration killing 50% of cells) is over 100 µM.

Consider `C=C1CC[C@H]2C(C)(C)CCC[C@]2(C)[C@H]1C/C=C1/CC(O)OC1=O` (some centres not stated) [CORONARIN D], for which, in assay [1], the GI50 is 8 µM and the CC50 came out at 14 µM. Moreover, in assay [2], growth was halved (GI50) at 47 µM and the 50% lethal concentration (LC50) was determined as 60.6 µM. In assay [3], the GI50 is 20.1 µM and the LC50 stood at 32 µM. For the same compound, in assay [4], the GI50 worked out at 17.4 µM and the LC50 (concentration killing 50% of cells) turned out to be 21.9 µM.

On to `C=C1C(C/C=C2\COC(=O)C2)[C@@]2(C)CCCC(C)(C)[C@@H]2C[C@@H]1O` (some centres not stated) [PACOVATININ A], for which the GI50 came to 15.1 µM in assay [1], 62.1 µM in assay [2], 54.8 µM in assay [3] and 44.7 µM in assay [4]. Also, the CC50 in assay [1] is 36.2 µM. Also, the LC50 in assay [2] worked out at 80.7 µM; in assay [3] it was 59.9 µM. The LC50 (concentration killing 50% of cells) in assay [4] stood at 55.6 µM.

Take `CC1(C)CCC[C@]2(C)[C@@H](/C=C/C3=CC(=O)OC3)C(CO)=C(O)C(=O)[C@@H]12`: the GI50 in assay [1] stood at 26 µM; in assay [2] it was 79.7 µM; in assay [3], 12.1 µM; in assay [4] it was 12 µM. For the same compound, the CC50 in assay [1] came out at 48.7 µM. The figures for the LC50 in assay [2] and in assay [3] were over 100 µM and 19.3 µM, respectively. The compound also yielded an LC50 (concentration killing 50% of cells) in assay [4] of 15.4 µM.

Take `COc1cc(/C=C/C=O)ccc1O` [CONIFERYL ALDEHYDE]: the GI50 in assay [1] was determined as 1.7 µM; in assay [2], 61.8 µM; in assay [3] it was 10.6 µM; in assay [4], 39.5 µM. For the same compound, the CC50 in assay [1] worked out at 11.4 µM.

In the case of `C=C1CC[C@H]2C(C)(C)CCC[C@]2(C)[C@H]1C/C=C1/CC(OC)OC1=O` (some centres not stated) [CORONARIN D METHYL ETHER], in assay [1], halving of growth (GI50) required 30 µM and the CC50 worked out at 71.3 µM. In assay [2], this compound gave a GI50 of over 100 µM and an LC50 of over 100 µM. In assay [3], this compound gave a concentration for 50% growth inhibition (GI50) of 13.6 µM and an LC50 of 19.1 µM. Moreover, in assay [4], it took 25.3 µM to inhibit growth by half (GI50) and the LC50 (concentration killing 50% of cells) is 31.6 µM.

On to `CC(C)(O)C1CC[C@@]2(C)CCC[C@@](C)(O)[C@@H]2C1` (some centres not stated) [CRYPTOMERIDIOL], for which the GI50 came out at 14.5 µM in assay [1], 75.6 µM in assay [2], 73.6 µM in assay [3] and 62.3 µM in assay [4]. In addition, in assay [1], the CC50 was found to be 27.4 µM.

For the compound `C=C1CC[C@H]2C(C)(C)CCC[C@]2(C)[C@H]1CCC1=CC(O)OC1=O` (some centres not stated) [CORONARIN C], in assay [1], halving of growth (GI50) required 4.8 µM and the CC50 worked out at 9.5 µM. In assay [2], this compound gave a GI50 of 36.3 µM and an LC50 of 45.9 µM. In addition, in assay [3], the GI50 turned out to be 25.8 µM and the LC50 worked out at 33.7 µM. Also, in assay [4], halving of growth (GI50) required 32.6 µM and the LC50 (concentration killing 50% of cells) came to 40.7 µM.

For `CCOC(=O)/C=C/c1ccc(O)c(OC)c1` [ETHYL FERULATE], the GI50 in assay [1] was 1.2 µM; in assay [2], 52.8 µM; in assay [3] it was 22.3 µM; in assay [4], 86.3 µM. For the same compound, the CC50 in assay [1] came out at 5.8 µM.

As for `CC1=CC(=O)[C@H]2C(C)(C)CCC[C@]2(C)[C@H]1/C=C/C1=CCOC1=O`, the concentration for 50% growth inhibition (GI50) was determined as 21.7 µM in assay [1], 83.6 µM in assay [2], 8.2 µM in assay [3] and 15.7 µM in assay [4]. In assay [1], the CC50 was determined as 39.6 µM. Further, the LC50 in assay [2] was over 100 µM; in assay [3] it was 20.8 µM. The LC50 (concentration killing 50% of cells) in assay [4] came out at 19.8 µM.

Regarding `COC(=O)Nc1nc2cc(C(=O)c3cccs3)ccc2[nH]1` [NOCODAZOLE], the GI50 was under 0.1 µM in assay [1], 0.75 µM in assay [2], 0.66 µM in assay [3] and under 0.1 µM in assay [4]. For the same compound, in assay [1], the CC50 was under 0.1 µM.

Regarding `CC1=CC(=O)[C@H]2C(C)(C)CCC[C@]2(C)[C@H]1/C=C/c1ccoc1` [HEDYCHENONE], in assay [1], the GI50 came out at 7.4 µM and the CC50 was 14 µM. In assay [2], this compound returned a GI50 of 63.2 µM and an LC50 of 81.5 µM. In assay [3], this compound had a GI50 of 11.6 µM and an LC50 of 17.2 µM. Further, in assay [4], the GI50 turned out to be 14.9 µM and the LC50 (concentration killing 50% of cells) is 19.8 µM.

Regarding `CC1=CC(=O)[C@H]2C(C)(C)CCC[C@]2(C)C1/C=C/C1=CC(O)OC1=O` (some centres not stated), in assay [1], the GI50 was 10.6 µM and the CC50 came to 21.2 µM. Further, in assay [2], the GI50 was over 100 µM and the LC50 is over 100 µM. In assay [3], this compound yielded a GI50 of 17.5 µM and an LC50 of 22.8 µM. In assay [4], this compound yielded a GI50 of 28.5 µM and an LC50 (concentration killing 50% of cells) of 34.8 µM.
